In ChEMBL document CHEMBL3351293, “Design, synthesis and in vitro evaluation of novel uni- and bivalent ligands for the cannabinoid receptor type 1 with variation of spacer length and structure” (Bioorg Med Chem Lett, 2014):

Tests used:
[1] = molecular target: Cannabinoid receptor 2 (Homo sapiens, UniProt P34972); assay: Displacement of [3H] CP-55,940 from human CB2 receptor expressed in HEK cells at 10 uM after 3 hrs by scintillation counting; format: cell-based; settings: for inhibition: HEK293
[2] = molecular target: T1, Cannabinoid receptor 1 (Homo sapiens, UniProt P21554); assay: Inverse agonist activity at human CB1 receptor expressed in Sf9 cells coexpressing Gbeta1gamma2 and RSG4 assessed as degradation of [gamma-33P]GTP after 20 mins by steady-state GTPase assay; format: cell-based
[3] = molecular target: T1, Cannabinoid receptor 1; settings: Sf9, at 30 µM
Description: Inverse agonist activity at human CB1 receptor expressed in Sf9 cells coexpressing Gbeta1gamma2 and RSG4 assessed as degradation of [gamma-33P]GTP at 30 uM after 20 mins by steady-state GTPase assay relative to control

[4] = molecular target: T1, Cannabinoid receptor 1; settings: Sf9, 30 uM
Description: Agonist activity at human CB1 receptor expressed in Sf9 cells coexpressing Gbeta1gamma2 and RSG4 assessed as degradation of [gamma-33P]GTP at 30 uM after 20 mins by steady-state GTPase assay relative to control

Sequence of Cannabinoid receptor 2 (P34972 whole entry): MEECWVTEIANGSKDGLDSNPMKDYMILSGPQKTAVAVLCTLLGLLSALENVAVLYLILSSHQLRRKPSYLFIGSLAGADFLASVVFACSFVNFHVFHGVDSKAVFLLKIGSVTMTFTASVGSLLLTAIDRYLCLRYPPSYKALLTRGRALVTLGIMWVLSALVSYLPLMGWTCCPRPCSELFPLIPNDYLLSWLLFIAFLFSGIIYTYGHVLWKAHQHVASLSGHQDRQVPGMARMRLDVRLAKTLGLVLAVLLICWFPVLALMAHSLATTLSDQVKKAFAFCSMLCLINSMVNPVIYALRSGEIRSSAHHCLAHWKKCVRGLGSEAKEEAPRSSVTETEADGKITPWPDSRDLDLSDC
T1 sequence (P21554 whole entry): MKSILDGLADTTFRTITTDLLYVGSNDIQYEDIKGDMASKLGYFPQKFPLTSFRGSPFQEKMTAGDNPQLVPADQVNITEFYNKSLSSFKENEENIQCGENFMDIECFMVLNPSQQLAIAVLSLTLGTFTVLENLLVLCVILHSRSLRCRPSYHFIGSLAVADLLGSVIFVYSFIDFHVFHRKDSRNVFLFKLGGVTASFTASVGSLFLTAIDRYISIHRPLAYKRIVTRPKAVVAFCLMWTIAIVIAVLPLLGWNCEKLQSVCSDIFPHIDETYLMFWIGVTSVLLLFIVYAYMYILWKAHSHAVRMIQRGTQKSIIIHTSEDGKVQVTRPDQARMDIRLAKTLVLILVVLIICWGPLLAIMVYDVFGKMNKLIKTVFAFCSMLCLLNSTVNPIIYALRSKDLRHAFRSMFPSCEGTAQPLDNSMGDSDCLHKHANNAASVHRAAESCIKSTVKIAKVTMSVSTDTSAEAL

Structure (SMILES)	inhibition [1] [%]	EC50 [2] [µM]	Emax [3] [%]	Emax [4] [%]	Ki [1] [µM]
Cc1c(C(=O)NCCCCCCCCNC(=O)[C@@H]2CCC[C@H](C(=O)NCCCCCCCCNC(=O)c3nn(-c4ccc(Cl)cc4Cl)c(-c4ccc(Cl)cc4)c3C)C2)nn(-c2ccc(Cl)cc2Cl)c1-c1ccc(Cl)cc1	10.3	3.16	33.6	–	–
Cc1c(C(=O)NCCCCCCCCNC(=O)[C@H]2CC[C@@H](C(=O)NCCCCCCCCNC(=O)c3nn(-c4ccc(Cl)cc4Cl)c(-c4ccc(Cl)cc4)c3C)CC2)nn(-c2ccc(Cl)cc2Cl)c1-c1ccc(Cl)cc1	27.3	8.71	62.4	–	–
Cc1c(C(=O)NCCCCCCCCNC(=O)c2ccccc2)nn(-c2ccc(Cl)cc2Cl)c1-c1ccc(Cl)cc1	21.4	0.501	80.2	–	–
Cc1c(C(=O)NCCCCNC(=O)[C@H]2CCCC[C@@H]2C(=O)NCCCCNC(=O)c2nn(-c3ccc(Cl)cc3Cl)c(-c3ccc(Cl)cc3)c2C)nn(-c2ccc(Cl)cc2Cl)c1-c1ccc(Cl)cc1 (relative stereo)	14.6	10.5	58.4	–	–
Cc1c(C(=O)NCCCCNC(=O)[C@H]2CC[C@H](C(=O)NCCCCNC(=O)c3nn(-c4ccc(Cl)cc4Cl)c(-c4ccc(Cl)cc4)c3C)CC2)nn(-c2ccc(Cl)cc2Cl)c1-c1ccc(Cl)cc1	17.6	–	–	–	–
Cc1c(C(=O)NCCCCNCc2cccc(C(=O)NCCCCNC(=O)c3nn(-c4ccc(Cl)cc4Cl)c(-c4ccc(Cl)cc4)c3C)c2)nn(-c2ccc(Cl)cc2Cl)c1-c1ccc(Cl)cc1	15.3	1.62	78.1	–	–
Cc1c(C(=O)NCCCCCCCCNC(=O)c2cccc(C(=O)NCCCCCCCCNC(=O)c3nn(-c4ccc(Cl)cc4Cl)c(-c4ccc(Cl)cc4)c3C)c2)nn(-c2ccc(Cl)cc2Cl)c1-c1ccc(Cl)cc1	29.1	13.5	59.1	–	–
Cc1c(C(=O)NCCCCCCNC(=O)c2cccc(C(=O)NCCNC(=O)c3nn(-c4ccc(Cl)cc4Cl)c(-c4ccc(Cl)cc4)c3C)c2)nn(-c2ccc(Cl)cc2Cl)c1-c1ccc(Cl)cc1	3.2	–	43.6	–	–
Cc1c(C(=O)NCCCCNC(=O)C23CC4CC(C2)CC(C(=O)NCCCCNC(=O)c2nn(-c5ccc(Cl)cc5Cl)c(-c5ccc(Cl)cc5)c2C)(C4)C3)nn(-c2ccc(Cl)cc2Cl)c1-c1ccc(Cl)cc1	15.8	16.2	66.4	–	–
Cc1c(C(=O)NCCCCCCCCNC(=O)C2CCCCC2)nn(-c2ccc(Cl)cc2Cl)c1-c1ccc(Cl)cc1	20.2	1.1	78.8	–	–
Cc1c(C(=O)NCCCCNC(=O)[C@H]2CC[C@@H](C(=O)NCCCCNC(=O)c3nn(-c4ccc(Cl)cc4Cl)c(-c4ccc(Cl)cc4)c3C)CC2)nn(-c2ccc(Cl)cc2Cl)c1-c1ccc(Cl)cc1	25.9	9.66	61.9	–	–
Cc1c(C(=O)NCCCCCCCCN)nn(-c2ccc(Cl)cc2Cl)c1-c1ccc(Cl)cc1	9.5	0.112	92.8	–	–
Cc1c(C(=O)NCCCCNCc2cccc(CNCCCCNC(=O)c3nn(-c4ccc(Cl)cc4Cl)c(-c4ccc(Cl)cc4)c3C)c2)nn(-c2ccc(Cl)cc2Cl)c1-c1ccc(Cl)cc1	7	8.85	76.8	–	–
Cc1c(C(=O)NCCCCCCCCNC(=O)[C@H]2CC[C@H](C(=O)NCCCCCCCCNC(=O)c3nn(-c4ccc(Cl)cc4Cl)c(-c4ccc(Cl)cc4)c3C)CC2)nn(-c2ccc(Cl)cc2Cl)c1-c1ccc(Cl)cc1	14.5	9.55	38.8	–	–
Cc1c(C(=O)NCCCCNCc2ccc(C(=O)NCCCCNC(=O)c3nn(-c4ccc(Cl)cc4Cl)c(-c4ccc(Cl)cc4)c3C)cc2)nn(-c2ccc(Cl)cc2Cl)c1-c1ccc(Cl)cc1	23	1.91	67.4	–	–
Cc1c(C(=O)NCCCCCCCCNC(=O)[C@@H]2CCC[C@@H](C(=O)NCCCCCCCCNC(=O)c3nn(-c4ccc(Cl)cc4Cl)c(-c4ccc(Cl)cc4)c3C)C2)nn(-c2ccc(Cl)cc2Cl)c1-c1ccc(Cl)cc1	18.8	7.6	45.5	–	–
Cc1c(C(=O)NCCCCCCCCNC(=O)[C@H]2CCCC[C@@H]2C(=O)NCCCCCCCCNC(=O)c2nn(-c3ccc(Cl)cc3Cl)c(-c3ccc(Cl)cc3)c2C)nn(-c2ccc(Cl)cc2Cl)c1-c1ccc(Cl)cc1 (relative stereo)	10.5	–	14.3	–	–

Structure (SMILES)	inhibition [1] [%]	EC50 [2] [µM]	Emax [3] [%]	Emax [4] [%]	Ki [1] [µM]
Cc1c(C(=O)NCCCCCCCCNC(=O)C23CC4CC(C2)CC(C(=O)NCCCCCCCCNC(=O)c2nn(-c5ccc(Cl)cc5Cl)c(-c5ccc(Cl)cc5)c2C)(C4)C3)nn(-c2ccc(Cl)cc2Cl)c1-c1ccc(Cl)cc1	4.1	7.24	34.7	–	–
Cc1c(C(=O)NN2CCCCC2)nn(-c2ccc(Cl)cc2Cl)c1-c1ccc(Cl)cc1	9	–	–	–	–
Cc1c(C(=O)NCCCCNC(=O)c2cccc(C(=O)NCCCCNC(=O)c3nn(-c4ccc(Cl)cc4Cl)c(-c4ccc(Cl)cc4)c3C)c2)nn(-c2ccc(Cl)cc2Cl)c1-c1ccc(Cl)cc1	0	–	19.5	–	–
Cc1c(C(=O)NCCCCNC(=O)[C@@H]2CCC[C@@H](C(=O)NCCCCNC(=O)c3nn(-c4ccc(Cl)cc4Cl)c(-c4ccc(Cl)cc4)c3C)C2)nn(-c2ccc(Cl)cc2Cl)c1-c1ccc(Cl)cc1 (relative stereo)	41.1	8.55	63	–	–
Cc1c(C(=O)NCCCCCCCCNC(=O)c2ccc(C(=O)NCCCCCCCCNC(=O)c3nn(-c4ccc(Cl)cc4Cl)c(-c4ccc(Cl)cc4)c3C)cc2)nn(-c2ccc(Cl)cc2Cl)c1-c1ccc(Cl)cc1	9.7	40.7	29.3	–	–
CCCCCCC(C)(C)c1ccc([C@@H]2C[C@H](O)CC[C@H]2CCCO)c(O)c1	–	–	–	67.4	–
Cc1c(C(=O)NCCCCNC(=O)[C@@H]2CCC[C@H](C(=O)NCCCCNC(=O)c3nn(-c4ccc(Cl)cc4Cl)c(-c4ccc(Cl)cc4)c3C)C2)nn(-c2ccc(Cl)cc2Cl)c1-c1ccc(Cl)cc1	19.8	24.3	38.2	–	–
Cc1c(C(=O)NCCCCNCc2ccccc2)nn(-c2ccc(Cl)cc2Cl)c1-c1ccc(Cl)cc1	85.4	0.661	92.5	–	12.7
Cc1c(C(=O)NCCCCNC(=O)C2CCCCC2)nn(-c2ccc(Cl)cc2Cl)c1-c1ccc(Cl)cc1	24.1	0.11	91.5	–	–
Cc1c(C(=O)NCCCCCCCCNCc2ccccc2)nn(-c2ccc(Cl)cc2Cl)c1-c1ccc(Cl)cc1	93.9	0.123	93.8	–	31
Cc1c(C(=O)NCCCCNCc2ccc(CNCCCCNC(=O)c3nn(-c4ccc(Cl)cc4Cl)c(-c4ccc(Cl)cc4)c3C)cc2)nn(-c2ccc(Cl)cc2Cl)c1-c1ccc(Cl)cc1	102	2.95	93.2	–	2.4
Cc1c(C(=O)NCCCCN)nn(-c2ccc(Cl)cc2Cl)c1-c1ccc(Cl)cc1	31.8	2.82	86.9	–	–
Cc1c(C(=O)NN2CCCCC2)nn(-c2ccc(Cl)cc2Cl)c1-c1ccc(I)cc1	–	–	100	–	–
Cc1c(C(=O)NCCCCNC(=O)c2ccccc2)nn(-c2ccc(Cl)cc2Cl)c1-c1ccc(Cl)cc1	25.8	0.776	94	–	–
Cc1c(C(=O)NCCCCNC(=O)c2ccc(C(=O)NCCCCNC(=O)c3nn(-c4ccc(Cl)cc4Cl)c(-c4ccc(Cl)cc4)c3C)cc2)nn(-c2ccc(Cl)cc2Cl)c1-c1ccc(Cl)cc1	24.3	15	50.2	–	–
Cc1c(C(=O)NCCCCCCCN(CCCCCCCNC(=O)c2nn(-c3ccc(Cl)cc3Cl)c(-c3ccc(Cl)cc3)c2C)Cc2ccccc2)nn(-c2ccc(Cl)cc2Cl)c1-c1ccc(Cl)cc1	22.6	3.85	67.5	–	–
Cc1c(C(=O)NCCCCCCCNCCCCCCCNC(=O)c2nn(-c3ccc(Cl)cc3Cl)c(-c3ccc(Cl)cc3)c2C)nn(-c2ccc(Cl)cc2Cl)c1-c1ccc(Cl)cc1	34.4	0.871	89.2	–	–
